≈ marks a conversion by molar mass, not a printed value. Calls of active or inactive are those of the source. The calls are words filed in the database; no cut-off is given here.
Key:
MCF7 [1] = test: Induction of apoptosis in human MCF7 cells assessed as necrotic cells at 10 nM measured after 48 hrs by annexin-FITC and propidium iodide staining based flow cytometry analysis (reference value: 0.18%); format: functional
Tubulin (Homo sapiens) [2] = biological target: T1, Tubulin (Homo sapiens) (UniProt P68371+Q9H4B7+P0DPH7+P68366+Q13509+Q71U36+P04350+Q3ZCM7+P07437+P68363+Q9BQE3+Q6PEY2+Q13885+Q9BVA1+Q9BUF5); test: Inhibition of microtubule assembly in human MCF7 cells assessed as appearance of disorganized fibrous microtubule structure at 1 to 10 nM incubated for 24 hrs by immunofluorescence assay; format: cell-based; conditions: dose 1-10 nM
[3] = Resistance index, ratio of IC50 for antiproliferative activity against human CDDP-resistant A549 cell to IC50 for antiproliferative activity against human A549 cells; format: functional
HUVEC = test: Anti-angiogenesis activity in human HUVEC cells assessed as disruption of capillary tube formation at 60 nM incubated for 6 hrs by inverted microscopic analysis relative to control; format: functional
MDA-MB-231 = test: Antitumor activity against human MDA-MB-231 cells xenografted in BALB/c nude mouse model assessed as inhibition of tumor growth volume administered as IP dose measured after 14 days; format: functional; conditions: dose 7.5-15 mg/kg, time 14.0 day
SK-OV-3 = test: Antiproliferative activity against human SK-OV-3 cells assessed as inhibition of cell growth measured after 48 hrs by MTT assay; format: functional, cell-based; conditions: SK-OV-3, 48 h
[4] = Toxicity in Balb/C nude mouse xenografted with A549/Taxol assessed as adverse effect at 15 mg/kg, ip measured after 14 days; format: organism-based, A549/TR; conditions: in vivo, 336 h, time 14 day
MGC-803 = test: Antiproliferative activity against human MGC-803 assessed as inhibition of cell growth measured after 48 hrs by MTT assay; format: functional, cell-based; conditions: MGC-803, 48 h
[5] = AUC (0 to infinity) in mouse at 15 mg/kg, po measured upto 24 hrs by LC-MS/MS analysis; format: ADME, organism-based; conditions: in vivo
[6] = Acute toxicity in ICR mouse assessed as survival rate at 50 mg/kg, ip measured after 14 days relative to control; format: organism-based; conditions: in vivo, time 14 day
U-87 MG = test: Antiproliferative activity against human U-87 MG assessed as inhibition of cell growth measured after 48 hrs by MTT assay; format: functional, cell-based, U-87MG ATCC
MCF7 [7] = test: Upregulation of histone H3 phosphorylation level in human MCF7 cells at 1 to 10 nM by Western blot analysis; format: functional, cell-based; conditions: dose 1-10 nM
[8] = Half life in mouse at 3 mg/kg, iv measured upto 24 hrs by LC-MS/MS analysis; format: ADME, organism-based; conditions: in vivo
[9] = Tmax in mouse at 3 mg/kg, iv measured upto 24 hrs by LC-MS/MS analysis; format: ADME, organism-based; conditions: in vivo
MCF7 [10] = test: Induction of apoptosis in human MCF7 cells assessed as viable cells at 20 nM measured after 48 hrs by annexin-FITC and propidium iodide staining based flow cytometry analysis (reference value: 94.69%); format: functional; conditions: read-out: Activity
MCF7 [11] = test: Induction of apoptosis in human MCF7 cells assessed as early apoptotic cells at 40 nM measured after 48 hrs by annexin-FITC and propidium iodide staining based flow cytometry analysis (reference value: 1.20%); format: functional
MCF7 [12] = test: Effect on katanin p60 protein level in katanin knockdown human MCF7 cells measured after 48 to 72 hrs by immunoblot analysis; format: functional, cell-based; conditions: time 48-72 hrs
[13] = Acute toxicity in ICR mouse assessed as animal death at 200 mg/kg, ip measured after 3 to 14 days; format: organism-based; conditions: in vivo, time 3-14 day
[14] = AUC (0 to t) in mouse at 3 mg/kg, iv measured upto 24 hrs by LC-MS/MS analysis; format: ADME, organism-based; conditions: in vivo
A549/TR = test: Antiproliferative activity against paclitaxel resistant human A549/Taxol cells assessed as inhibition of cell growth measured after 48 hrs by MTT assay; format: functional, cell-based
[15] = AUC (0 to t) in mouse at 15 mg/kg, po measured upto 24 hrs by LC-MS/MS analysis; format: ADME, organism-based; conditions: in vivo
MCF7 [16] = test: Induction of apoptosis in human MCF7 cells assessed as early apoptotic cells at 20 nM measured after 48 hrs by annexin-FITC and propidium iodide staining based flow cytometry analysis (reference value: 1.20%); format: functional
Tubulin (Homo sapiens) [17] = biological target: T1, Tubulin (Homo sapiens); test: Inhibition of microtubule assembly in human MCF7 cells assessed as decrease in density at 1 to 10 nM incubated for 24 hrs by immunofluorescence assay; format: cell-based; conditions: dose 1-10 nM
MDA-MB-468 = test: Antiproliferative activity against human MDA-MB-468 cells assessed as inhibition of cell growth measured after 48 hrs by MTT assay; format: functional, cell-based; conditions: MDA-MB-468, 48 h
[18] = Toxicity in Balb/C nude mouse xenografted with A549/Taxol assessed as effect on kidney at 15 mg/kg, ip measured after 14 days by H and E staining based analysis; format: organism-based, A549/TR; conditions: in vivo, 336 h, time 14 day
[19] = Stability in mouse plasma assessed as half life at 1 uM measured upto 120 mins by LC-MS/MS analysis; format: ADME, cell-free
MCF7 [20] = test: Induction of cell cycle arrest in human MCF7 cells assessed as accumulation of cells at G2/M phase at 10 nM measured after 24 hrs by propidium iodide staining based flow cytometry analysis (reference value: 26%); format: functional
[21] = Toxicity in Balb/C nude mouse assessed as effect on body weight loss at 15 mg/kg, ip measured upto 2 weeks; format: organism-based; conditions: in vivo, 336 h
[22] = Antiproliferative activity against cisplatin resistant human A2780/CDDP cells assessed as inhibition of cell growth measured after 48 hrs by MTT assay; format: functional, cell-based
[23] = Oral bioavailability in mouse at 15 mg/kg measured upto 24 hrs by LC-MS/MS analysis; format: ADME, organism-based; conditions: in vivo
[24] = Water solubility of the compound at pH 7.4 by HPLC analysis; format: physicochemical
A2780 = test: Antiproliferative activity against human A2780 cells assessed as inhibition of cell growth measured after 48 hrs by MTT assay; format: functional, cell-based; conditions: A2780, 48 h
[25] = Acute toxicity in ICR mouse assessed as animal death at 300 mg/kg, ip measured after 2 days; format: organism-based; conditions: in vivo, 48 h, time 2 day
MCF7 [26] = test: Antiproliferative activity against human MCF7 cells assessed as inhibition of cell growth measured after 48 hrs by MTT assay; format: functional, cell-based; conditions: MCF7, 48 h
[27] = MRT (0 to infinity) in mouse at 3 mg/kg, iv measured upto 24 hrs by LC-MS/MS analysis; format: ADME, organism-based; conditions: in vivo
MCF7 [28] = test: Induction of apoptosis in human MCF7 cells assessed as upregulation of PARP-1 protein level by Western blot analysis; format: functional, cell-based; conditions: dose 10-40 nM
MCF7 [29] = test: Induction of apoptosis in human MCF7 cells assessed as necrotic cells at 20 nM measured after 48 hrs by annexin-FITC and propidium iodide staining based flow cytometry analysis (reference value: 0.18%); format: functional
[30] = Toxicity in Balb/C nude mouse assessed as drug tolerance at 15 mg/kg, ip measured upto 2 weeks; format: organism-based; conditions: in vivo, 336 h
MCF7 [31] = test: Induction of apoptosis in human MCF7 cells assessed as late apoptotic cells at 20 nM measured after 48 hrs by annexin-FITC and propidium iodide staining based flow cytometry analysis (reference value: 3.93%); format: functional

## COc1cc(-n2cnc3ccc(-c4ccc(C)c(N)c4)nc32)cc(OC)c1OC
MCF7 [1]
  Activity: 0.41%
Tubulin (Homo sapiens) [2]
  inhibition: Active
[3]
  Ratio IC50: 1.81
HUVEC
  Activity: 100%
MDA-MB-231
  Activity: Dose-Dependent Effect
SK-OV-3
  IC50: 0.8 nM
[4]
  Activity: Non-Toxic
MGC-803
  IC50: 0.5 nM
[5]
  AUC(0-inf): 1340 ng·h/mL
[6]
  survival at 336 h: 100%
U-87 MG
  IC50: 15 nM
MCF7 [7]
  Activity: Active
[8]
  half-life: 63.6 min
[9]
  Tmax: 4.8 min
MCF7 [10]
  viability at 0.02 µM: 46.6%
MCF7 [11]
  Activity: 32.55%
MCF7 [12]
  Activity: inactive
[13]
  Activity: Non-Toxic
[14]
  AUC(0-t) at 24 h: 666 ng·h/mL
A549/TR
  IC50: 1.6 nM
[15]
  AUC(0-t) at 24 h: 1240 ng·h/mL
MCF7 [16]
  Activity: 31.28%
Tubulin (Homo sapiens) [17]
  inhibition: Active
MDA-MB-468
  IC50: 10 nM
[18]
  Activity: Non-Toxic
[19]
  half-life at 1 µM: 39 h
MCF7 [20]
  Activity: ~67%
[21]
  Activity: Non-Toxic
[22]
  IC50: 4.2 nM
[23]
  bioavailability: 40%
[24]
  solubility: 30 µg/mL (≈ 76.8 µM)
A2780
  IC50: 3 nM
[25]
  Activity: Non-Toxic
MCF7 [26]
  IC50: 1 nM
[27]
  MRT inf: 31.2 min
MCF7 [28]
  Activity: Dose-Dependent Effect
MCF7 [29]
  Activity: 0.62%
[30]
  Activity: Non-Toxic
MCF7 [31]
  Activity: 21.54%
